Measured values reported in patent publication US20170066759A1, “AROMATIC 5-MEMBERED HETEROCYCLIC DERIVATIVE HAVING TRPV4-INHIBITING ACTIVITY” (Shionogi & Co., Ltd., priority 2012, published 2017).
pIC50: −log10 of the molar value. Like-named read-outs stand apart in the source and are kept apart here.

Target: T1, human TRPV4 (hTRPV4/CHO cells) (Homo sapiens, UniProt Q9HBA0)
T1 construct: expressed in transfected cells; host or cells: CHO-K1
Test: Test Example 1: TRPV4 inhibitory activity (IC50 value), 4α-PDD stimulation, Fluo4 calcium fluorescence (FLIPR TETRA)
Type: cell-based

[1] = Test Example 1, 4α-PDD stimulation, read-out: Test 1 IC50

T1 sequence (Q9HBA0 whole entry): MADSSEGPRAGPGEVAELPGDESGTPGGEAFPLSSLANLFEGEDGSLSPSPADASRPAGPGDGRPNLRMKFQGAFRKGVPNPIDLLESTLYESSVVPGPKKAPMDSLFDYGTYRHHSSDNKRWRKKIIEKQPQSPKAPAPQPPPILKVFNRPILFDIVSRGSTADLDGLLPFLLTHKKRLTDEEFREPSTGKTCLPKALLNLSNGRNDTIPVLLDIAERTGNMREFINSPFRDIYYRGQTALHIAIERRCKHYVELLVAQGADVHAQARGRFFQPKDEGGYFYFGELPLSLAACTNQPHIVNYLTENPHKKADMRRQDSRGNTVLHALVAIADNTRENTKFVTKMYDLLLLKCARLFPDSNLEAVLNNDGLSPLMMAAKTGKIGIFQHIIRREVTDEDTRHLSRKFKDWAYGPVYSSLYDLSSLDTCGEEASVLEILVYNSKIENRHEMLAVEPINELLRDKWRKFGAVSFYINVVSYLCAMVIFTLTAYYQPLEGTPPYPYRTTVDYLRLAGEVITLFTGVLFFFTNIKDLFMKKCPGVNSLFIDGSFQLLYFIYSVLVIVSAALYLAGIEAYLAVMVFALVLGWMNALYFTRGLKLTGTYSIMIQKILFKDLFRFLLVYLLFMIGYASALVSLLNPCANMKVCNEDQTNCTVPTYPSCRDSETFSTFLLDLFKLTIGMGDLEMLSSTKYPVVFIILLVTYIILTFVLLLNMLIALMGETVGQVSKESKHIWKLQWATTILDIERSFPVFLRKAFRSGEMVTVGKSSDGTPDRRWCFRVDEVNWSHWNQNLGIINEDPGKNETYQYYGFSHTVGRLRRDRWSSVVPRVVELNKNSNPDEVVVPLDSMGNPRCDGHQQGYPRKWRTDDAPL

Compound	pIC50 [1]	pIC50 (1 μmol/L 4α-PDD, Fluo4-AM, read-out: TRPV4 inhibitory activity (IC50 value))
Cc1nc(C)c(-c2csc(NC(=O)C3CC4(C3)CC(F)(F)C4)n2)s1 [Compound I-470]	> 7.00	
CC(=O)NCc1nc(C)sc1-c1csc(NC(=O)Cc2ccc(S(=O)(=O)C(F)(F)F)cc2)n1 [Compound I-471]	> 7.00	
Cc1nc(CO)sc1-c1csc(NC(=O)C2C[C@H](C(F)(F)F)CN2C(=O)OCC(F)(F)F)n1 (some centres unmarked) [Compound I-475]	6.00 to 7.00	
Cc1nc(C(C)O)sc1-c1csc(NC(=O)[C@@H]2C[C@@H](c3ccccc3)CN2C(=O)C(F)(F)F)n1 (some centres unmarked) [Compound I-476]	> 7.00	
Cc1nc(C)c(-c2csc(NC(=O)Cc3ccc(S(=O)(=O)C(F)(F)F)cc3)n2)[nH]1 [Compound I-477]	5.10 to 6.00	
CC(=O)Nc1nc(-c2sc(C)nc2C)cs1 [Compound I-480]	5.10 to 6.00	
O=C(Cc1ccc(S(=O)(=O)C(F)(F)F)cc1)Nc1nc(-c2sc(CO)nc2CN2CCOC2=O)cs1 [Compound I-483]	6.00 to 7.00	
Cc1nc(CCl)c(-c2csc(NC(=O)Cc3ccc(S(=O)(=O)C(F)(F)F)cc3)n2)s1 [Compound I-484]	> 7.00	
Cc1nc(CS(C)(=O)=O)c(-c2csc(NC(=O)Cc3ccc(S(=O)(=O)C(F)(F)F)cc3)n2)s1 [Compound I-485]	6.00 to 7.00	
Cc1nc(CS(=O)(=O)C(F)(F)F)c(-c2csc(NC(=O)Cc3ccc(S(=O)(=O)C(F)(F)F)cc3)n2)s1 [Compound I-486]	6.00 to 7.00	
Cc1nc(CN2NCCC2=O)c(-c2csc(NC(=O)Cc3ccc(S(=O)(=O)C(F)(F)F)cc3)n2)s1 [Compound I-487]	6.00 to 7.00	
COC(=O)c1cccc(CC(=O)Nc2nc(-c3sc(C)nc3C)cs2)c1 [Compound I-488]	> 7.00	
Cc1nc(C)c(-c2csc(NC(=O)Cc3cccc(C(=O)N[C@H](c4ccccc4)C(F)(F)F)c3)n2)s1 [Compound I-489]	> 7.00	
Cc1nc(C)c(-c2csc(NC(=O)Cc3cccc(C(=O)N[C@@H](c4ccccc4)C(F)(F)F)c3)n2)s1 [Compound I-490]	> 7.00	
Cc1nc(C)c(-c2csc(NC(=O)CC3CN(Cc4ccc(C(F)(F)F)cc4)C3)n2)s1 [Compound I-491]	5.10 to 6.00	
Cc1nc(C)c(-c2csc(NC(=O)CC3CN(c4ccc(C(F)(F)F)cc4)C3)n2)s1 [Compound I-492]	> 7.00	
Cc1nc(C)c(-c2csc(NC(=O)CC3CN(c4ccc(C(F)(F)F)cn4)C3)n2)s1 [Compound I-493]	6.00 to 7.00	
Cc1nc(C)c(-c2csc(NC(=O)CCC(=O)N[C@H](c3ccccc3)C(F)(F)F)n2)s1 [Compound I-494]	6.00 to 7.00	
Cc1nc(C)c(-c2csc(NC(=O)[C@H]3CC[C@@H](C(=O)N[C@H](c4ccccc4)C(F)(F)F)CC3)n2)s1 [Compound I-495]	6.00 to 7.00	
Cc1nc(C)c(-c2csc(NC(=O)C3(C)CN(c4ccc(C(F)(F)F)cc4)C3)n2)s1 [Compound I-496]	> 7.00	
Cc1nc(C)c(-c2csc(NC(=O)C3CN(c4ccc(C(F)(F)F)cc4)C3)n2)s1 [Compound I-497]	> 7.00	
Cc1nc(C)c(-c2csc(NC(=O)Cc3cccc(S(=O)(=O)Nc4ccc(C(F)(F)F)cc4)c3)n2)s1 [Compound I-498]	> 7.00	
Cc1nc(C)c(-c2csc(NC(=O)Cc3cccc(S(=O)(=O)N[C@H](c4ccccc4)C(F)(F)F)c3)n2)s1 [Compound I-499]	> 7.00	
Cc1nc(C)c(-c2csc(NC(=O)Cc3cccc(S(=O)(=O)Nc4ccccc4F)c3)n2)s1 [Compound I-501]	> 7.00	
Cc1nc(C)c(-c2csc(NC(=O)Cc3cccc(S(=O)(=O)NCC(F)(F)F)c3)n2)s1 [Compound I-502]	> 7.00	

Compound	pIC50 [1]	pIC50 (1 μmol/L 4α-PDD, Fluo4-AM, read-out: TRPV4 inhibitory activity (IC50 value))
Cc1nc(C)c(-c2csc(NC(=O)C3CN(S(=O)(=O)c4ccc(Cl)cc4Cl)C3)n2)s1 [Compound I-503]	> 7.00	
COc1cc(CC(=O)Nc2nc(-c3sc(C)nc3C)cs2)cc(C(=O)NC(c2ccccc2)C(F)(F)F)c1 (centres unmarked) [Compound I-504]	> 7.00	
Cc1nc(C)c(-c2csc(NC(=O)Cc3cccc(C(=O)Nc4ccccc4F)n3)n2)s1 [Compound I-505]	> 7.00	
Cc1nc(C)c(-c2csc(NC(=O)Cc3cccc(C(=O)NC(c4ccccc4)C(F)(F)F)n3)n2)s1 (centres unmarked) [Compound I-506]	> 7.00	
Cc1nc(C)c(-c2csc(NC(=O)Cc3cccc(C(=O)NC(C(C)(C)C)C(F)(F)F)n3)n2)s1 (centres unmarked) [Compound I-507]	> 7.00	
Cc1nc(C)c(-c2csc(NC(=O)Cc3cccc(C(=O)Nc4ccc(C(F)(F)F)cc4)n3)n2)s1 [Compound I-508]	> 7.00	
COC(=O)c1cccc(CC(=O)Nc2nc(-c3sc(C)nc3C)cs2)n1 [Compound I-509]	6.00 to 7.00	
Cc1nc(C)c(-c2csc(NC(=O)Cc3cc(Br)cc(C(=O)N[C@H](c4ccccc4)C(F)(F)F)c3)n2)s1 [Compound I-510]	> 7.00	
Cc1nc(C)c(-c2csc(NC(=O)Cc3cc(O)cc(C(=O)N[C@H](c4ccccc4)C(F)(F)F)c3)n2)s1 [Compound I-511]	5.10 to 6.00	
COCCOc1cc(CC(=O)Nc2nc(-c3sc(C)nc3C)cs2)cc(C(=O)N[C@H](c2ccccc2)C(F)(F)F)c1 [Compound I-513]	> 7.00	
Cc1nc(C)c(-c2csc(NC(=O)Cc3cc(OCCN(C)C)cc(C(=O)N[C@H](c4ccccc4)C(F)(F)F)c3)n2)s1 [Compound I-514]	5.10 to 6.00	
Cc1nc(C)c(-c2csc(NC(=O)Cc3cc(OCCO)cc(C(=O)N[C@H](c4ccccc4)C(F)(F)F)c3)n2)s1 [Compound I-515]	6.00 to 7.00	
Cc1nc(C)c(-c2csc(NC(=O)Cc3cc(C#N)cc(C(=O)N[C@H](c4ccccc4)C(F)(F)F)c3)n2)s1 [Compound I-516]	> 7.00	
Cc1nc(C)c(-c2csc(NC(=O)Cc3cc(C(=O)N[C@H](c4ccccc4)C(F)(F)F)cc([N+](=O)[O-])c3)n2)s1 [Compound I-517]	> 7.00	
Cc1nc(C)c(-c2csc(NC(=O)Cc3cc(N)cc(C(=O)N[C@H](c4ccccc4)C(F)(F)F)c3)n2)s1 [Compound I-518]	> 7.00	
Cc1nc(C)c(-c2csc(NC(=O)Cc3cc(C(=O)N[C@H](c4ccccc4)C(F)(F)F)cc(-c4nnn[nH]4)c3)n2)s1 [Compound I-520]	5.10 to 6.00	
Cc1nc(C)c(-c2csc(NC(=O)Cc3cc(OCC(F)(F)F)cc(C(=O)N[C@H](c4ccccc4)C(F)(F)F)c3)n2)s1 [Compound I-521]	> 7.00	8.80
Cc1nc(C)c(-c2csc(NC(=O)Cc3cc(OCC4CC4)cc(C(=O)N[C@H](c4ccccc4)C(F)(F)F)c3)n2)s1 [Compound I-522]	> 7.00	
Cc1nc([C@H](C)O)sc1-c1csc(NC(=O)Cc2cc(Br)cc(C(=O)Nc3ccc(C(F)(F)F)cc3)c2)n1 [Compound I-523]	> 7.00	
Cc1nc([C@H](C)O)sc1-c1csc(NC(=O)Cc2cc(Br)cc(C(=O)N[C@H](c3ccccc3)C(F)(F)F)c2)n1 [Compound I-524]	> 7.00	
COc1cc(CC(=O)Nc2nc(-c3sc(C)nc3C)cs2)cc(C(=O)Nc2ccc(C(F)(F)F)cc2)c1 [Compound I-525]	> 7.00	
COc1cc(CC(=O)Nc2nc(-c3sc(C)nc3C)cs2)cc(C(=O)Nc2ccc(Cl)cc2F)c1 [Compound I-526]	> 7.00	
COc1cc(CC(=O)Nc2nc(-c3sc(C)nc3C)cs2)cc(C(=O)NC(C)(C)C(F)(F)F)c1 [Compound I-528]	> 7.00	
Cc1nc(C)c(-c2csc(NC(=O)C3CN(c4cnc(C(F)(F)F)cn4)C3)n2)s1 [Compound I-534]	> 7.00	
Cc1nc(C)c(-c2nc(NC(=O)Cc3c(F)cccc3F)sc2C2=CCCCC2)s1 [Compound I-537]	5.10 to 6.00	

Compound	pIC50 [1]	pIC50 (1 μmol/L 4α-PDD, Fluo4-AM, read-out: TRPV4 inhibitory activity (IC50 value))
Cc1nc(C)c(-c2nc(NC(=O)Cc3c(F)cccc3F)sc2-c2ccsc2)s1 [Compound I-538]	5.10 to 6.00	
CCOC(=O)c1nc(C)sc1-c1csc(NC(=O)Cc2c(F)cccc2F)n1 [Compound I-539]	> 7.00	
Cc1ncsc1-c1csc(NC(=O)Cc2c(F)cccc2F)n1 [Compound I-540]	6.00 to 7.00	
Cc1nc(C)c(-c2csc(NC(=O)Cc3ccccc3[N+](=O)[O-])n2)s1 [Compound I-541]	> 7.00	
Cc1nc(C(F)F)sc1-c1csc(NC(=O)Cc2ccc(N(C)C)cc2)n1 [Compound I-542]	6.00 to 7.00	
Cc1nc(C(F)F)sc1-c1csc(NC(=O)C2CCC(C(F)(F)F)CC2)n1 (centres unmarked) [Compound I-543]	6.00 to 7.00	
Cc1nc(C)c(-c2nsc(NC(=O)Cc3ccc(C(O)C(F)(F)F)cc3)n2)s1 (centres unmarked) [Compound I-544]	5.10 to 6.00	
C=C(C)c1nc(C)sc1-c1csc(NC(=O)Cc2c(F)cccc2F)n1 [Compound I-545]	6.00 to 7.00	
O=C(Nc1nc(-c2sc(CO)nc2CO)cs1)C1CC(c2ccccc2)C1 (centres unmarked) [Compound I-546]	6.00 to 7.00	
Cc1nc(CO)sc1-c1csc(NC(=O)C2CC(c3ccccc3)C2)n1 (centres unmarked) [Compound I-547]	> 7.00	
O=C(Nc1nc(-c2sc(CO)nc2CO)cs1)[C@H]1C[C@H](OCc2ccccc2)C1 [Compound I-548]	6.00 to 7.00	
O=C(Nc1nc(-c2sc(CO)nc2CO)cs1)[C@H]1C[C@@H](OCc2ccccc2)C1 [Compound I-549]	5.10 to 6.00	
O=C(Nc1nc(-c2sc(CO)nc2CO)cs1)[C@H]1C[C@@H](OCc2ccc(C(F)(F)F)cc2)C1 [Compound I-550]	6.00 to 7.00	
NC(=O)c1nc(CO)c(-c2csc(NC(=O)[C@H]3C[C@@H](OCc4ccc(C(F)(F)F)cc4)C3)n2)s1 [Compound I-551]	6.00 to 7.00	
Cc1nc(CO)sc1-c1csc(NC(=O)[C@H]2C[C@H](C(F)F)C2)n1 [Compound I-552]	6.00 to 7.00	
Cc1nc(C)c(-c2csc(C(=O)NCc3cccc(F)c3)n2)s1 [II-2]	5.10 to 6.00	
Cc1nc(CO)c(-c2csc(NCCc3c(F)cccc3F)n2)s1 [II-3]	6.00 to 7.00	
Cc1nc(C)c(-c2csc(CCOc3ccc(Br)cc3)n2)s1 [II-4]	5.10 to 6.00	
Cc1ccc(-c2csc(NC(=O)C3CC(F)C3)n2)s1 (centres unmarked) [II-5]	6.00 to 7.00	
O=C(Cc1ccc(S(=O)(=O)CC(F)(F)F)cc1)Nc1nc(-c2cccs2)cs1 [II-6]	6.00 to 7.00	
O=C(Nc1nc(-c2cccs2)cs1)C1CC(F)C1 (centres unmarked) [II-7]	5.10 to 6.00	
Cc1ccc(-c2csc(NC(=O)Cc3ccc(S(=O)(=O)CC(F)(F)F)cc3)n2)s1 [II-8]	6.00 to 7.00	
Cc1nc(C)c(-c2csc(NC(=N)Cc3ccc(Cl)cc3)n2)s1 [II-31]	5.10 to 6.00	
